ChEMBL document CHEMBL2073986, “Impaired organic anion transport in kidney and choroid plexus of organic anion transporter 3 (Oat3 (Slc22a8)) knockout mice” (J Biol Chem, 2002)

Target: T1, Organic anion transporter 3 (Mus musculus, UniProt O88909)
T1 sequence (O88909 whole entry): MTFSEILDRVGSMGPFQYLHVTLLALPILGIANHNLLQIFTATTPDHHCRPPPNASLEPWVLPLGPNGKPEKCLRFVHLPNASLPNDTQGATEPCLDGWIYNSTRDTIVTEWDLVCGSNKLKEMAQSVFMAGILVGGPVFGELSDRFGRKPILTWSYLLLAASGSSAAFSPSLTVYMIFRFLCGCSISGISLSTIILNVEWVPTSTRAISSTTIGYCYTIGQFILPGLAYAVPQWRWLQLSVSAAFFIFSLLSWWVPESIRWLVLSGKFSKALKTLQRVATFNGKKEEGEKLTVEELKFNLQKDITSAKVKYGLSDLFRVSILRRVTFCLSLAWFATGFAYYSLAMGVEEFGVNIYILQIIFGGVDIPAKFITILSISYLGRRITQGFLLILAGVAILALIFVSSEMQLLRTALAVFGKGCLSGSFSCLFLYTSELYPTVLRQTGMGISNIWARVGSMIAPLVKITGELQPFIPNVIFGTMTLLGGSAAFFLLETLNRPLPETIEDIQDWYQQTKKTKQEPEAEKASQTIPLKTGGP
Assay: TP_TRANSPORTER: uptake in Xenopus laevis oocytes
Assay type: functional, cell-based
Conditions: oocyte

| Structure (SMILES) | Activity |
| --- | --- |
| Nc1ccc(C(=O)NCC(=O)O)cc1 [AMINOHIPPURIC ACID] | substrate [+] |
| C[C@]12CC[C@@H]3c4ccc(OS(=O)(=O)O)cc4CC[C@H]3[C@@H]1CCC2=O [ESTRONE SULFURIC ACID] | substrate [+] |
